Molecules are shown by their SMILES. Read-outs that look alike come from different tables or passages of the source.

Data set [1] deals with NCl-H460 (human lung carcinoma ATCC HTB-177). Nature of the data set: MTT cytotoxicity assay, H460 cell line. In kind it is cell-based. As to conditions: H460 cells, read-out: H460 cell line (Lung cancer) IC50 ± SD. As to the method:
(§1) The cytotoxicity of samples was measured against HeLa (human cervical carcinoma ATCC CCl-2), PC-3 (human prostate cancer ATCC CRL-1435), NCl-H460 (human lung carcinoma ATCC HTB-177), HCT116 (human colon cancer ATCC CCl-247), and 3T3 (control fibroblast normal ATCC CRL-1658) cell lines by using standard MTT assay. Cell lines were grown in DMEM F12 media, supplemented with 10% FBS under a 5% CO2 atmosphere at 37°C in an incubator.
(§2) The colorimetric assay MTT [3-(4, 5-dimethyl thiazol-2yl)-2, 5-diphenyl tetrazolium bromide] was used for the evaluation of cell metabolic activity. In this assay, the yellow MTT is reduced to purple formazon in the mitochondria of the living cells (Gerlier and Thomasset, [1986]). The more the living cells, the more the color and thus more absorbance is observed by colorimeter (Fesahat et al., [2015]). We have used this method to analyze the effect of our transformed products on cellular cytotoxicity against cancer cells. Around 10,000 cells of each cell line (HeLa, PC3, H460, HCT116 cancers, and 3T3 normal) were seeded in 96-well plates. After reaching 80–90% confluency, they were treated with various concentrations of compounds (25, 50, 75, 100, and 200 μM) for 24 h. All compounds were dissolved in sterile DMSO to make a 200 mM stock solution. The solution was filtered, and serial dilutions were made in growth medium. 600 μL of each dilution was used to treat 3 wells (triplicate of each) of 96 well plate i.e., 200 μL each. Each experiment was performed in three biological replicates. MTT was added, and incubated for 4 h. […] The Multiskan reader gives λmax at 540 nm in DMSO treated 3T3 fibroblast cells (that are more confluent in morphology) whereas in case of cancer cells, 570 nm gives λmax (Bonmati-Carrion et al., [2013]; Danihelová et al., [2013]). A broad range of epithelial carcinoma cell lines were used in this experiment where cisplatin was a common drug of choice. It targets DNA, interferes with cell division during mitosis and induces apoptosis (Eastman, [1999]). IC50 values were calculated to determine the minimum concentration required to kill 50% of the cells.
(§3) % Inhibition=100-(At-Ab)/(Ac-Ab) ×100% Cell survival=(At-Ab)/(Ac-Ab) ×100

Data set [2] has as its system 3T3 (control fibroblast normal ATCC CRL-1658). As to the kind of experiment: MTT cytotoxicity assay, 3T3 normal cell line. The following applies: 3T3 normal cells, read-out: 3T3 cell line (Mouse fibroblast) IC50 ± SD. In kind it is cell-based. As to the method:
as §1, §2, §3
On the technique in general: Tetrazolium dyes change colour on reduction, which living cells bring about.

Data set [3] deals with HeLa (human cervical carcinoma ATCC CCl-2). As to the kind of experiment: MTT cytotoxicity assay, HeLa cell line. In kind it is cell-based. The following applies: 24 h treatment, HeLa cells, read-out: HeLa cell line (Cervical cancer) IC50 ± SD. As to the method: as §1, §2, §3
Data set [4] concerns HCT116 (human colon cancer ATCC CCl-247). As to the kind of experiment: MTT cytotoxicity assay, HCT116 cell line. In kind it is cell-based. As to conditions: HCT116 cells, read-out: HCT116 cell line (Colon cancer) IC50 ± SD. As to the method: as §1, §2, §3
For data set [5], the system named is PC-3 (human prostate cancer ATCC CRL-1435). Nature of the data set: MTT cytotoxicity assay, PC-3 cell line. In kind it is cell-based. The following applies: 24 h treatment, PC3 cells, read-out: PC3 cell line (Prostate cancer) IC50 ± SD. As to the method:
as §1, §2, §3

The mark [6] stands for this setting: Homo sapiens, NCI-H460, 24 h treatment.
[7] abbreviates: Mus musculus, NIH3T3, 24 h treatment.
Where [8] appears, read: Homo sapiens, HCT-116, 24 h treatment.

A word on the IC50: it is the concentration that gives 50% inhibition. Turning to `CCCCCCC(=O)OC1CCC2C3CCC4CC(=O)C(C)CC4(C)C3CCC12C` (centres unmarked) [Compound 1, drostanolone enanthate], the IC50 was 5 ± 1.2 µM in data set [1] (setting [6]); over 150 µM in data set [2] (setting [7]); 54.7 ± 1.6 µM in data set [3] (Homo sapiens); 3.1 ± 3.2 µM in data set [4] (setting [8]); 96.2 ± 3 µM in data set [5] (Homo sapiens, PC-3, 24 h).
In the same order, the values of `C[C@@H]1C[C@@]2(C)[C@@H](CC[C@@H]3[C@@H]2CC[C@]2(C)[C@@H](O)CC[C@@]32O)C[C@@H]1O` [Compound 2, 2α-methyl-3α,14α,17β-trihydroxy-5α-androstane] are 44.4 ± 2 µM, over 150 µM, 64.3 ± 3 µM, 39.4 ± 2 µM and 84.6 ± 6.4 µM.
By melting point is commonly meant the temperature, or range, at which the solid turns liquid. For `C[C@@H]1C[C@@]2(C)[C@H](CC1=O)C[C@@H](O)[C@@H]1[C@@H]2CC[C@]2(C)C(=O)CC[C@@H]12` [Compound 3, 2α-methyl-7α-hydroxy-5α-androstan-3,17-dione], the melting point was in the range of 230 to 234 °C. The IC50 in data set [1] (setting [6]) was 16.7 ± 2.6 µM. The IC50 in data set [2] (setting [7]) is over 150 µM. The IC50 in data set [3] (Homo sapiens) was 58 ± 1 µM. Moreover, in data set [4] (setting [8]), the IC50 amounted to 42.8 ± 1.2 µM. Besides, the IC50 in data set [5] came out at 68.1 ± 1.2 µM. For the same molecule, the IC50 in data set [5] (Homo sapiens, PC-3, 24 h) turned out to be 68 ± 1.2 µM.
Molecule `C[C@@H]1C[C@@]2(C)[C@@H](CC[C@@H]3[C@@H]2CC[C@]2(C)[C@@H](O)CC[C@@H]32)C[C@@H]1O` [Compound 4, 2α-methyl-3α,17β-dihydroxy-5α-androstane] came in with a melting point of 242 to 245 °C. Besides, in data set [1] (setting [6]), the IC50 amounted to 12.4 ± 2.3 µM. Also, the IC50 in data set [2] (setting [7]) is over 150 µM. For the same molecule, the IC50 in data set [3] (Homo sapiens) came to 49.5 ± 2.2 µM. Moreover, the IC50 in data set [4] (setting [8]) was determined as 80.9 ± 1.6 µM. In addition, the IC50 in data set [5] (Homo sapiens, PC-3, 24 h) was found to be 60.4 ± 0.9 µM.
Consider `CC1=C[C@@]2(C)C(=CC1=O)CC[C@@H]1[C@@H]2CC[C@]2(C)C(=O)CC[C@@H]12` [Compound 5, 2-methylandrosta-1,4-diene-3,17-dione], for which the melting point is 198 to 202 °C. Further, in data set [2] (setting [7]), the IC50 is over 150 µM. In addition, the IC50 in data set [3] (Homo sapiens) is 39.8 ± 1.5 µM. For the same molecule, the IC50 in data set [4] (setting [8]) was found to be 30.4 ± 1.6 µM. Also, in data set [5] (Homo sapiens, PC-3, 24 h), the IC50 was 84 ± 3.1 µM.
On to `CC1=C[C@@]2(C)C(=CC1=O)CC[C@@H]1[C@@H]2[C@H](O)C[C@]2(C)C(=O)CC[C@@H]12` [Compound 6, 2-methylandrosta-11α-hydroxy-1,4-diene-3,17-dione], for which the melting point fell in the range of 230 to 234 °C. Besides, the IC50 in data set [1] (setting [6]) was 33.2 ± 1 µM. Also, the IC50 in data set [2] (setting [7]) was over 150 µM. The IC50 in data set [3] (Homo sapiens) came out at 40.7 ± 0.9 µM. Further, the IC50 in data set [4] (setting [8]) is 45.9 ± 4.2 µM. Further, in data set [5] (Homo sapiens, PC-3, 24 h), the 50% inhibitory concentration (IC50) turned out to be 58.4 ± 1.6 µM.
`CC1=C[C@@]2(C)C(=CC1=O)CC[C@@H]1[C@@H]2CC[C@]2(C)C(=O)CC[C@@]12O` [Compound 7, 2-methylandrosta-14α-hydroxy-1,4-diene-3,17-dione] displayed a melting point of 224 to 228 °C. Further, the IC50 in data set [1] (setting [6]) came to 38.5 ± 2.8 µM. The IC50 in data set [2] (setting [7]) was over 150 µM. The IC50 in data set [3] (Homo sapiens) came to 43.9 ± 2.4 µM. Further, in data set [4] (setting [8]), the IC50 stood at 46.6 ± 3 µM. Also, the IC50 in data set [5] (Homo sapiens, PC-3, 24 h) is 59.1 ± 2.6 µM.
Turning to `CC1=C[C@@]2(C)[C@H](CC1=O)C[C@@H](O)[C@@H]1[C@@H]2CC[C@]2(C)C(=O)CC[C@@H]12` [Compound 8, 2-methylandrosta-7α-hydroxy-1-ene-3,17-dione], the melting point was in the range of 250 to 256 °C. In addition, the IC50 in data set [1] (setting [6]) was found to be 26.4 ± 0.9 µM. The IC50 in data set [2] (setting [7]) amounted to 74.6 ± 3.7 µM. Also, the IC50 in data set [3] (Homo sapiens) worked out at 19.6 ± 1.4 µM. The IC50 in data set [4] (setting [8]) came to 55 ± 1.9 µM. For the same molecule, in data set [5] (Homo sapiens, PC-3, 24 h), the IC50 came out at 51.8 ± 3.4 µM.
Consider `C[C@@H]1C[C@@]2(C)[C@@H](CC[C@@H]3[C@@H]2CC[C@]2(C)[C@@H](O)CC[C@@H]32)CC1=O` [Compound 9, 2α -methyl-5α-androstane-17β-hydroxy-3-one], for which the IC50 in data set [1] (setting [6]) came out at 31.8 ± 1.2 µM; in data set [2] (setting [7]), 62.1 ± 1.2 µM; in data set [3] (Homo sapiens), 25.1 ± 1.6 µM; in data set [4] (setting [8]), 2.8 ± 0.2 µM; in data set [5] (Homo sapiens, PC-3, 24 h) it was 57.8 ± 3.2 µM.
With `N.N.[Cl][Pt][Cl]` [cisplatin, reference compound], the IC50 stood at 22.2 ± 2.1 µM in data set [1] (24 h treatment); 42.7 ± 0.8 µM in data set [2] (24 h treatment); 40.1 ± 2 µM in data set [3]; 11.2 ± 3.03 µM in data set [4] (24 h treatment); 76.5 ± 1.2 µM in data set [5].

These data come from paper PMC5742531, “Bio-Catalytic Structural Transformation of Anti-cancer Steroid, Drostanolone Enanthate with Cephalosporium aphidicola and Fusarium lini, and Cytotoxic Potential Evaluation of Its Metabolites against Certain Cancer Cell Lines” (Frontiers in Pharmacology, 2017).
